Drawing on PubChem BioAssay (NCI), this text covers TGI for nine compounds.

Some test systems named below: 786-0 renal; EKVX NSCLC; HCT-15 colon; K-562 leukemia; MCF7 breast; MOLT-4 leukemia; NCI-H522 lung; OVCAR-5 ovarian; RPMI-8226 leukemia; SF-295 CNS; U251 CNS; UACC-257 melanoma; LOX IMVI melanoma; NCI-H226 lung; NCI-H23 lung; RXF 393 renal; UACC-62 melanoma; CAKI-1 renal.
Experiment in all cases: DTP human tumour cell line panel, 48 h

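Method: 48-hour compound exposure of cells in 96-well plates, five concentrations, linear interpolation of endpoints. TGI: concentration producing complete growth inhibition.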

`COc1cc(C2c3cc4c(cc3[C@@H](Nc3ccccc3)C3CO[C@@H](OC)[C@H]23)OCO4)cc(OC)c1O` (some centres undefined): the TGI (as a rule, the concentration giving total growth inhibition) in the test with 786-0 renal was 15.4 µM; in the test on EKVX NSCLC it was above 25 µM; in the test with HCT-15 colon, above 25 µM; with K-562 leukemia, above 25 µM; in the test on MCF7 breast, above 25 µM; in the test with MOLT-4 leukemia it was 6.34 µM. Also, the TGI in the test on NCI-H522 lung was above 25 µM; in the test with OVCAR-5 ovarian, 23.8 µM; in the test on RPMI-8226 leukemia, 10.2 µM; with SF-295 CNS, 12.4 µM; in the test on U251 CNS it was above 25 µM; with UACC-257 melanoma, above 25 µM.
Turning to `O=C(CSc1nnc(Cc2ccccc2)o1)Nc1cccc([N+](=O)[O-])c1`, the TGI in the test on 786-0 renal, in the test on HCT-15 colon, with K-562 leukemia, with LOX IMVI melanoma, in the test on MOLT-4 leukemia and with NCI-H226 lung was above 100 µM each time. Besides, the TGI in the test with NCI-H23 lung, in the test with NCI-H522 lung, in the test with OVCAR-5 ovarian, with RPMI-8226 leukemia, in the test on RXF 393 renal and in the test on SF-295 CNS was above 100 µM in each case. The TGI with U251 CNS, with UACC-257 melanoma and in the test with UACC-62 melanoma was above 100 µM in each case.
As for `COc1cc2c(c(OC)c1OC)-c1ccc(SC)c(=O)cc1C(CC(=O)Oc1ccc([N+](=O)[O-])cc1)C2` (centres undefined), the TGI is above 37.2 µM in the test on 786-0 renal; above 62.8 µM with CAKI-1 renal; above 100 µM with EKVX NSCLC; above 100 µM in the test on HCT-15 colon; 20.2 µM in the test with LOX IMVI melanoma; above 100 µM with MOLT-4 leukemia. Further, the TGI in the test on NCI-H226 lung was 0.865 µM; in the test with NCI-H23 lung it was 1.88 µM; in the test on OVCAR-5 ovarian, above 100 µM; in the test with RPMI-8226 leukemia, above 63 µM; in the test on RXF 393 renal, 0.65 µM; in the test on SF-295 CNS it was above 45.6 µM. Besides, the TGI with U251 CNS is 1.43 µM; in the test on UACC-257 melanoma it was above 49.1 µM; in the test with UACC-62 melanoma, 11.4 µM.
For the compound `CCOC(=O)[C@H]1Nc2ccc(C)cc2C2c3ccccc3CC21` (some centres undefined), the TGI in the test with 786-0 renal, with CAKI-1 renal, with EKVX NSCLC, in the test with HCT-15 colon, in the test with K-562 leukemia and with LOX IMVI melanoma was above 100 µM throughout. The TGI in the test with MOLT-4 leukemia, in the test with NCI-H226 lung, in the test on NCI-H23 lung, with NCI-H522 lung, with OVCAR-5 ovarian and in the test on RPMI-8226 leukemia was above 100 µM throughout. In addition, the TGI with RXF 393 renal, in the test on SF-295 CNS, in the test on U251 CNS, in the test on UACC-257 melanoma and in the test on UACC-62 melanoma was above 100 µM in each case.
For `COc1cccc(C2c3cc4c(cc3OC(N3CCCC3)C2C)OCO4)c1` (centres undefined), the TGI in the test on 786-0 renal was 33.7 µM; with CAKI-1 renal, 8.61 µM; in the test with EKVX NSCLC, 94.1 µM; in the test with HCT-15 colon, above 100 µM; in the test on K-562 leukemia, 5.72 µM; with LOX IMVI melanoma, 30.5 µM. For the same compound, the TGI in the test on MCF7 breast was 51.5 µM; with NCI-H23 lung, above 100 µM; in the test on NCI-H522 lung it was 22.5 µM; with OVCAR-5 ovarian, 82.1 µM; in the test on RPMI-8226 leukemia, 24.3 µM; in the test on SF-295 CNS it was 37.8 µM. The TGI was determined as 52.3 µM with UACC-257 melanoma and 34.5 µM in the test on UACC-62 melanoma.
In the case of `Cc1cc(O)c(/C=N/C(=S)NCCc2ccccc2)c(=O)o1`, the TGI in the test with 786-0 renal, with CAKI-1 renal, in the test with EKVX NSCLC, in the test on HCT-15 colon, in the test on LOX IMVI melanoma and in the test on MCF7 breast was above 100 µM each time. In addition, the TGI in the test with MOLT-4 leukemia, in the test with NCI-H226 lung, in the test with NCI-H23 lung, with OVCAR-5 ovarian, with SF-295 CNS and in the test with U251 CNS was above 100 µM in each case. Besides, the TGI in the test on UACC-257 melanoma is above 100 µM.
As to `N#[O+].O=S(=O)([O-])[O-].[NH2-].[NH2-].[NH2-].[NH2-].[NH2-].[Ru+5]`, the TGI in the test on 786-0 renal, in the test with CAKI-1 renal, in the test with EKVX NSCLC, in the test on HCT-15 colon, with LOX IMVI melanoma and in the test with MOLT-4 leukemia was above 100 µM throughout. Moreover, the TGI with NCI-H226 lung, in the test on NCI-H23 lung, in the test on NCI-H522 lung, in the test on OVCAR-5 ovarian, in the test with RXF 393 renal and in the test with SF-295 CNS was above 100 µM each time. In addition, the TGI with U251 CNS, in the test with UACC-257 melanoma and in the test with UACC-62 melanoma was above 100 µM each time.
Take `O=[N+]([O-])C(C(Cl)=C(Cl)Cl)=C(N1CCOCC1)N1CCOCC1`: the TGI with 786-0 renal, with CAKI-1 renal, in the test with EKVX NSCLC, in the test on HCT-15 colon, in the test on K-562 leukemia and in the test with LOX IMVI melanoma was above 100 µM in each case. The TGI in the test on MOLT-4 leukemia, with NCI-H226 lung, with NCI-H23 lung, with NCI-H522 lung, in the test on OVCAR-5 ovarian and in the test with RPMI-8226 leukemia was above 100 µM each time. For the same compound, the TGI in the test with RXF 393 renal, in the test on SF-295 CNS, with U251 CNS, with UACC-257 melanoma and with UACC-62 melanoma was above 100 µM throughout.
As for `O=P(c1ccccc1)(c1ccccc1)C(NCc1ccccc1)c1ccc(F)cc1` (centres undefined), the TGI in the test on 786-0 renal turned out to be 34.8 µM; in the test on CAKI-1 renal it was 38 µM; in the test with EKVX NSCLC it was 25.4 µM; in the test on HCT-15 colon, 28.7 µM; in the test with K-562 leukemia, 65.4 µM; in the test with LOX IMVI melanoma, 28 µM. For the same compound, the TGI in the test on MOLT-4 leukemia was 37.5 µM; in the test with NCI-H226 lung, 40.4 µM; in the test with NCI-H23 lung, 31.3 µM; in the test with NCI-H522 lung it was 25.2 µM; in the test on RPMI-8226 leukemia it was above 100 µM; with RXF 393 renal, 28.3 µM. The TGI turned out to be 29.4 µM with SF-295 CNS, 30 µM with U251 CNS, 34.9 µM in the test with UACC-257 melanoma and 27.3 µM with UACC-62 melanoma.
